US6569805B1, “Herbicidal compositions” (Aventis CropScience GmbH, priority 1999, dated 2003)
“And” between values parts separate entries of the source, which are not always exact repeats. Equal entries are not always repeated.

Tests used:
Type in all cases: in vivo
Cyperus esculentus = assay: Greenhouse test under paddy rice conditions, visual scoring about 3 weeks after application (Example 4); settings: herbicide 0.004 kg/ha without vegetable oil
Experimental: (§1) Rice, and Cyperus esculentus as typical harmful plant, were grown in a greenhouse under paddy rice conditions (flooding level of the water 2-3 cm) in sealed plastic pots and sprayed with an active substance preparation at an application rate of (converted) 600 l/ha. The test plants were then placed in the greenhouse under optimal growth conditions and kept like this over the entire test period. Approximately 3 weeks after the application, they were evaluated by means of visually scoring the damage to the plants in comparison with the untreated control, using the following scheme: 100%=total destruction, 0%=no action. The test results are shown in the table hereinbelow, the action of the herbicide/safener combination and of the vegetable oil when used separately being stated in brackets: […]

Rice = assay: as above; settings: crop plant, herbicide 0.004 kg/ha without vegetable oil
Experimental: as §1

Sorghum halepense = assay: Greenhouse pot test, post-emergence spray, damage evaluated visually 2-3 weeks after treatment (Example 3); settings: herbicide 0.015 kg/ha without vegetable oil
Experimental: (§2) Seeds or rhizome pieces of monocotyledonous and dicotyledonous harmful plants and useful plants were placed in sandy loam in pots of diameter 9 to 13 cm and covered with soil. The pots were kept in a greenhouse under optimal conditions. In the two- to three-leaf stage, i.e. approximately three weeks after cultivation has begun, the test plants were treated with the herbicides and vegetable oil in the form of aqueous dispersions or suspensions or emulsions and the green parts of the plant were sprayed with various dosage rates at an application rate of (converted) 300 l of water/ha. To grow the plants further, the pots were kept in the greenhouse under optimal conditions. The damage to the useful plants and harmful plants was evaluated visually 2-3 weeks after the treatment using the following scheme: 100%=total destruction, 0%=no action. The test results are shown in the table hereinbelow, the action of the herbicide/safener combination and of the vegetable oil when used separately being stated in brackets: […]

Echinochloa crus galli = assay: as above; settings: herbicide 0.015 kg/ha without vegetable oil
Experimental: as §2

Chenopodium album = assay: as above; settings: herbicide 0.015 kg/ha without vegetable oil
Experimental: as §2

| Compound | CYPES Action (%), herbicide used separately (first value in brackets) (Cyperus esculentus) [%] | Rice Action (%), herbicide used separately (first value in brackets) (Rice) | SORHA Action (%), herbicide used separately (first value in brackets) (Sorghum halepense) | ECHCG Action (%), herbicide used separately (first value in brackets) (Echinochloa crus galli) | CHEAL Action (%), herbicide used separately (first value in brackets) (Chenopodium album) |
| --- | --- | --- | --- | --- | --- |
| CCOc1ccccc1OS(=O)(=O)NC(=O)Nc1nc(OC)cc(OC)n1 [A13, 1-(4,6-dimethoxypyrimidin-2-yl)-3-(2-ethoxyphenoxysulfonyl)urea] | 35 | 0 (0 + 0) % |  |  |  |
| COc1cc(OC)nc(NC(=O)NS(=O)(=O)c2ncccc2C(=O)N(C)C)n1 [V1, Nicosulfuron] |  |  | (0 + 0) % | 0 (0 + 0) % and 0% | (0 + 0) % |
